Values of other authors as cited in article PMC8400941, “Preclinical Toxicity and Safety of MM-129—First-in-Class BTK/PD-L1 Inhibitor as a Potential Candidate against Colon Cancer” (Pharmaceutics, 2021).

Tests used:
[1] = parameters: method as in PMID 24079553; settings: cited from earlier work
patients = settings: chemotherapy regimens used in CRC; cited from earlier work
BFU-E growth = tested on: BFU-E growth; parameters: method as in PMID 17318617; settings: multiple administration, 350 mg/kg/day, transient; cited from earlier work
zebrafish embryos/larvae = settings: 5 μM; cited from earlier work

CC[C@H](CO)Nc1nc(NCc2ccc(-c3ccccn3)cc2)c2ncn(C(C)C)c2n1 [CR8]
elimination half-life [1]: about 3 h

O=c1[nH]cc(F)c(=O)[nH]1 [5-FU, 5-fluorouracil]
patients with hepatotoxicity (patients): up to 47%

CC[C@H](CO)Nc1nc(NCc2ccccc2)c2ncn(C(C)C)c2n1 [seliciclib]
BFU-E growth, of the controls (BFU-E growth): less than 50%
embryos with absence of swimming activity, lack of heartbeat and tail blood flow (zebrafish embryos/larvae): 57%
larvae with curved body (zebrafish embryos/larvae): 50%
larvae with edema (both mild and severe) (zebrafish embryos/larvae): 82%
